Blank lines part the entries; values can stand above or below the molecule they belong to.
Tests used:
[1] = target: T1, SisCsx1 (Saccharolobus islandicus, UniProt F0NE21); assay: native gel shift with […]-labelled cOA4; type: binding
T1 construct: gene SiRe_0884; full-length His-tagged, expressed from pSe-Csx1 in S. islandicus delta-csx1 delta-alpha; 300 kDa hexamer (trimer of dimers); CARF-HTH-HEPN; cOA4 site between two CARF domains; residues printed up to A454
T1 sequence (F0NE21 1-454): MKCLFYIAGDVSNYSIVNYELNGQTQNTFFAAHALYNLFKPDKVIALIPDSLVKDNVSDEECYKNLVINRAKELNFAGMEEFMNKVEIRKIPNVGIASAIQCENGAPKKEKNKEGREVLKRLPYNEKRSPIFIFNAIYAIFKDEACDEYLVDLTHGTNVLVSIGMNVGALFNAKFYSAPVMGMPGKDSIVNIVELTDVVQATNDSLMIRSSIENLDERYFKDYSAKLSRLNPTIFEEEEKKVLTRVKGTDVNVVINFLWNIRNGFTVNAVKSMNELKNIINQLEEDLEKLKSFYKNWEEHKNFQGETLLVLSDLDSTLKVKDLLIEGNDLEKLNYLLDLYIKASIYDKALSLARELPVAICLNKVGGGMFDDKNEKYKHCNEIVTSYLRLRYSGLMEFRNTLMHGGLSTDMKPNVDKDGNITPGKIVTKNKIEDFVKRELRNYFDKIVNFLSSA

[2] = target: T1, SisCsx1; assay: fluorescent dark-RNA cleavage (activation dose response); type: biochemical; conditions: 1-128 nM cOA4, 34 nM SisCsx1, 0.2 µM dark-RNA, 70 °C, 3 min; allosteric activator
[3] = target: Sulfolobus islandicus Csx1 (Sulfolobus islandicus); assay: SEC-MALS; Superdex 200 Increase 10/300 GL, room temperature, 20 mM Tris pH 8.0, 300 mM NaCl; 50 ul injected at 1.9 mg/ml
[4] = target: Sulfolobus islandicus Csx1 I383A/L390D/R391A mutant (Sulfolobus islandicus); assay: as above

- Kd [1]: ~18 nM
Molecule: Nc1ncnc2c1ncn2[C@@H]1O[C@@H]2COP(=O)(O)O[C@H]3[C@@H](O)[C@H](n4cnc5c(N)ncnc54)O[C@@H]3COP(=O)(O)O[C@H]3[C@@H](O)[C@H](n4cnc5c(N)ncnc54)O[C@@H]3COP(=O)(O)O[C@H]3[C@@H](O)[C@H](n4cnc5c(N)ncnc54)O[C@@H]3COP(=O)(O)O[C@H]2[C@H]1O [cOA4]
- fluorescent dark-RNA cleavage (activation dose response) [2]: cleavage of a ssRNA substrate was quantified in the presence of increasing amounts of cOA4

- stoichiometry N [3]: 6
Molecule: Sulfolobus islandicus Csx1 (enzyme)

- stoichiometry N [4]: 2
Molecule: Sulfolobus islandicus Csx1 I383A/L390D/R391A mutant (enzyme)

Reference: publication PMC6754442, “Structure of Csx1-cOA4 complex reveals the basis of RNA decay in Type III-B CRISPR-Cas” (Nature Communications, 2019)
